EP3628663A1, “ANTIVIRAL COMPOUNDS” (priority 2018, dated 2020)
Read-outs that look alike come from different tables or passages of the source.

Experiments:
HAd-C5-GFP = experiment: Fluorescent plaque forming assay of adenoviral propagation (virus spread); assay type: cell-based; settings: HEK293 cells
Procedure: Adenoviral propagation was quantified by fluorescent plaque forming assay with GFP expressing HAd-C5 vector in the presence of the compound as a measure of virus spread through multiple rounds of infection.
HEK293 cells were infected with 0.1 physical particles per cell (pp/cell) of E1-deficient GFP expressing HAd-C5-GFP vector for 24 hours followed by removal of the inoculums and overlay with 1% agarose supplemented with vehicle only (DMSO) or 5 µM of the compound of formula (IIIa).
Six days after infection, plaque sizes were measured by epifluorescence microscopy using Image J.
Cidofovir™, the standard clinical drug used against adenovirus infections in the clinic, is also included in this test.
The compounds were used at a concentration of 5 µM. Cidofovir was in particular used at even higher concentration, i.e. 10 and 20 µM.
DMSO was used as negative control.
Statistical analysis was carried out using unpaired Student t-test.

protein VI = experiment: Ubiquitylation of RFP-tagged protein VI in NEDD4.2-GFP expressing cells (RFP-trap, western blot); assay type: cell-based; settings: increasing amounts (0, 2, 5, 10, 25 µM) for 2h; NEDD4.2-GFP cells
Procedure: Stably expressing NEDD4.2-GFP cells were transfected with an expression vector encoding RFP-tagged protein VI WT (including the PPxY targeted by NEDD4 ubiquitin ligases through WW-domains, which are the target of the compounds) or protein VI M1 (with the PPxY targeted by NEDD4 ubiquitin ligases through WW-domains mutated to PGAA) and treated with increasing amounts of the compound of formula (IIIa) for 2h. RFP stands for Red Fluorescent Protein.
Protein VI was immunoprecipitated from drug treated cells using RFP-trap and analyzed by western blotting with anti-ubiquitin antibodies.
(§1) Samples were analyzed by western blot using anti-protein VI antibodies described in Martinez et al., J Virol. 2015 Feb;89(4):2121-35.

WW3-NEDD 4.2 peptide = WW3-NEDD 4.2 peptide (Homo sapiens, UniProt Q96PU5); experiment: MicroScale thermophoresis (MST) binding to FAM-labelled WW3 peptide of NEDD4.2; settings: 100 nM FAM-labelled peptide, 1x PBS pH 7.4, 5 % DMSO, 0.1 % Pluronic F-127, 25°C
Procedure: (§2) For the MicroScale Thermophoresis (MST) experiments 1 mg of each FAM-labeled WW3_Nedd.4.1 ([…] KIPAH = SEQ ID NO: 1) and WW3_Nedd.4.2 peptide ([…] […] = SEQ ID NO: 2) (FAM = Fluorescein amidite) was used at >80% purity.
(§3) MicroScale thermophoresis binding experiments were carried out with final 100 nM FAM-labelled WW3_Nedd.4.1 and WW3_Nedd.4.2 in binding buffer (1x PBS pH 7.4, 5 % DMSO, 0.1 % Pluronic F-127). The concentration range of the compound of formula (IIIa) is indicated here-after: Table 1
(§4) The MST analyses were performed at 40 % MST power, 100 % LED power in standard capillaries on a Monolith NT.115 blue/green device at 25°C (NanoTemper Technologies, Munich, Germany) in duplicate technical runs in the same capillary. Thermophoresis + Tjump was analysed. The recorded fluorescence was normalised to fraction bound (0 = unbound, 1 = bound), and processed using the GraphPad Prism® 6 software and fitted using the KD fit formula derived from the law of mass action.

U2OS cells = experiment: Ubiquitin proteome by diGly peptide enrichment and LC-MS/MS; assay type: cell-based, Homo sapiens; settings: 24h, compared to DMSO treated control cells
Procedure: U2OS Cells were treated for 24h with two different concentrations of the compound of formula (IIIa) (2µM and 10µM) and were subjected to Mass Spec. analysis following diGly peptide enrichment to obtain changes in the Ubiquitin proteome.
Briefly, cells were collected following treatment (as above) and protein extracts generated using acetone precipitation. Total proteins were trypsin-digested and the resulting peptides purified through anti di-Gly affinity chromatography prior being sequenced by LC-MS/MS.

NEDD4.2-GFP = experiment: Association of incoming fluorescently labelled adenoviruses with NEDD4.2-GFP (fluorescence microscopy); assay type: cell-based, Homo sapiens; settings: 10µM; 15-30 min p.i.
Procedure: GFP-NEDD4.2 expressing cells were infected in absence or presence of 10µM of the compound of formula (IIIa) with fluorescently labelled viruses and association between viruses and NEDD4.2-GFP was quantified using fluorescence microscopy.

GFP-NEDD4.1 = experiment: Localization of GFP-NEDD4.1 in U2OS cells (fluorescence microscopy); assay type: cell-based, Homo sapiens; settings: U2OS cells stably expressing GFP-NEDD4.1, versus DMSO
From the text: (§5) U2OS cells (ATCC® HTB-96™) (Homo sapiens bone osteosarcoma) stably expressing low levels of GFP-NEDD4.1 or GFP-NEDD4.2 were generated through single copy flp-FRT integration (Bosse et al., Methods Mol Biol. 2013;1064:153-69.) and treated with the compound of formula (IIIa) or the control DMSO.

recombinant NEDD4.2 = target: T1, recombinant NEDD4.2 (Homo sapiens, UniProt Q96PU5); experiment: In vitro ubiquitylation of protein VI released from adenovirus particles with recombinant NEDD4.2; assay type: biochemical; settings: high concentrations (25 µM); recombinant NEDD4.2, 1h at 30°C
T1 sequence (Q96PU5 1-975): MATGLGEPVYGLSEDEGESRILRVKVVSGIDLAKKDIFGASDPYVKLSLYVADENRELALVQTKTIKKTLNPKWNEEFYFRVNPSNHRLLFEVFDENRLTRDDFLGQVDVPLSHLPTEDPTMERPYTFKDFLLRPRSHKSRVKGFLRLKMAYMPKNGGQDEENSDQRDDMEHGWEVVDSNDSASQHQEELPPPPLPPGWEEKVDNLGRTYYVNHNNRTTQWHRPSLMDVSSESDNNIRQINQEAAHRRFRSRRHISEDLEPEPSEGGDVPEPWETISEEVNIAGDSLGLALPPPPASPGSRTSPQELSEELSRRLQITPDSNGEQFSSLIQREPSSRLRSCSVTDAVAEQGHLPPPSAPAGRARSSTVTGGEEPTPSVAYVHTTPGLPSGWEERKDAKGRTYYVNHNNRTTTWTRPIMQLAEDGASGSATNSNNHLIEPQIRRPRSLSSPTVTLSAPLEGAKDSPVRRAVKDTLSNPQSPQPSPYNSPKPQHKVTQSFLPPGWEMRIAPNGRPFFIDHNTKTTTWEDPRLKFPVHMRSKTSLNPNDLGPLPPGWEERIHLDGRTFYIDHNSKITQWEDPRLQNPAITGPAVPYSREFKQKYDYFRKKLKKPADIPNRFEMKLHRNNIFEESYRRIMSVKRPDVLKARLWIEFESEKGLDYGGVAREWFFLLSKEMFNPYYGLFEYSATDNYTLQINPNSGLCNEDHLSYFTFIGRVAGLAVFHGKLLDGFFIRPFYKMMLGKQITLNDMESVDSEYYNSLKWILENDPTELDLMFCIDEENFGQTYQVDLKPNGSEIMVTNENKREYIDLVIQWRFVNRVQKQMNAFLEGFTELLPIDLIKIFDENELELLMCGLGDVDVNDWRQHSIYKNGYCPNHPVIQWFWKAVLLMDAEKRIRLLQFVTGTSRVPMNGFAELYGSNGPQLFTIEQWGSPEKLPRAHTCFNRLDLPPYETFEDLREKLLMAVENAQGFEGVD
Procedure: For in vitro ubiquitylation reactions, purified Adenovirus particles were treated with mild heat to release protein VI as previously described in Wodrich et al. (2010 - PLoS Pathog. 6, e1000808), and in vitro ubiquitylation reactions were supplemented with recombinant NEDD4.2 and DMSO or the compound of formula (IIIa) and carried out for 1h at 30°C or left on ice.
as §1

GFP-NEDD4.2 = experiment: Localization of GFP-NEDD4.2 in U2OS cells (fluorescence microscopy); assay type: cell-based, Homo sapiens; settings: U2OS cells stably expressing GFP-NEDD4.2, versus untreated cells
From the text: as §5

WW3-domain of NEDD4 = target: T2, WW3-domain of NEDD4 (Homo sapiens, UniProt P46934); experiment: Solution NMR interaction study with synthetic WW3-domain peptide of NEDD4; assay type: binding; settings: equimolar amounts of compound and NEDD4 peptide
T2 construct: a peptide corresponding to the 45 amino acids of WW3-domain of NEDD4; made in house; host or cells: chemical synthesis

WW3-NEDD 4.1 peptide = WW3-NEDD 4.1 peptide (Homo sapiens, UniProt P46934); experiment: MicroScale thermophoresis (MST) binding to FAM-labelled WW3 peptide of NEDD4.1
Procedure: as §2, §3, §4

WW3-NEDD 4.1 peptide, sequence (P46934 834-878): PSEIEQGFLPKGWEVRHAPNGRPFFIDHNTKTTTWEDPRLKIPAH
WW3-NEDD 4.2 peptide, sequence (Q96PU5 with tags, fused parts or gaps): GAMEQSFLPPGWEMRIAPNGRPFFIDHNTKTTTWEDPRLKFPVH
T2 sequence (P46934 834-878): as the sequence (P46934 834-878) above

Structure (SMILES) | inhibition of adenoviral propagation (plaque size) (HAd-C5-GFP; 10 µM and 20 µM (highest non-cytotoxic concentrations), plaque size) | ubiquitylation of protein VI in cells (protein VI) | Kd (WW3-NEDD 4.2 peptide) [µM] | ubiquitylation of cellular proteins (U2OS cells; 2µM) | ubiquitylation of cellular proteins (U2OS cells; 10µM) | recruitment of NEDD4.2 to incoming AdV particles (NEDD4.2-GFP) | anti-adenoviral activity (plaque size) (HAd-C5-GFP; 5 µM, 0.1 pp/cell HAd-C5-GFP, plaque size six days after infection, compared to DMSO) | NEDD4.1 localization (GFP-NEDD4.1) | protein VI ubiquitylation in vitro (recombinant NEDD4.2) | NEDD4.2 localization (GFP-NEDD4.2) | interaction with the NEDD4 peptide (NMR chemical shift change) (WW3-domain of NEDD4) | Kd (WW3-NEDD 4.1 peptide; MST, 100 nM FAM-labelled peptide, 1x PBS pH 7.4, 5 % DMSO, 0.1 % Pluronic F-127, 25°C, read-out: WW3-NEDD 4.1 peptide KD) [µM] | higher affinity to the WW3 peptide domain target compared to the Imidazole control (WW3-NEDD 4.1 peptide; ratio of MST KD values, WW3-NEDD4.1 and WW3-NEDD4.2) | Kd (WW3-NEDD 4.1 peptide) [µM]
Nc1ccn(C[C@@H](CO)OCP(=O)(O)O)c(=O)n1 [Cidofovir, reference compound] | did not show significant inhibition |  |  |  |  |  |  |  |  |  |  |  |  | 
O=C(/C=C(\C(=O)c1ccc(Cl)cc1Cl)n1ccnc1)c1ccc(Cl)cc1Cl [Compound of formula (IIIa), (E)-1,4-Bis(2,4-dichlorophenyl)-2-(1H-imidazol-1-yl)but-2-ene-1,4-dione] |  | gradually impaired ubiquitylation of protein VI | 0.12 ± 0.039 | protein ubiquitylation is reduced or increased for several cellular proteins | preferentially increases ubiquitylation of several cellular proteins | prevented the recruitment of NEDD4.2 | effective anti-adenoviral activity | became largely immobile and relocated to a perinuclear region | prevented protein VI ubiquitylation in vitro | accumulated strongly at cell-cell-contact sites as well as in a distinct perinuclear region | interacts with the NEDD4 peptide | 0.058 ± 0.022 | 100-1000 fold | 
c1c[nH]cn1 [Imidazole (control), Imidazole, reference compound] |  |  | 90.4 ± 38.6 |  |  |  |  |  |  |  |  |  |  | 88.9 ± 28.4
